Reference: ChEMBL document CHEMBL3045012, “Quinoline-based azetidinone and thiazolidinone analogues as antimicrobial and antituberculosis agents” (2013)
Values after ≈ are worked out from the molar mass of the structure shown.

What was measured:
Format in all cases: functional
[1] = tested on: Mycobacterium tuberculosis; test: Antituberculosis activity against Mycobacterium tuberculosis H37Rv assessed as growth inhibition after 12 to 28 days by L-J MIC method; settings: for MIC: Mycobacterium tuberculosis, H37Rv
Candida albicans [2] = test: Antimicrobial activity against Candida albicans MTCC 183 assessed as growth inhibition after 48 hr by agar streak dilution technique; settings: MTCC 183, 48 h
Aspergillus niger [3] = test: Antimicrobial activity against Aspergillus niger MTCC 282 assessed as growth inhibition after 48 hr by agar streak dilution technique; settings: MTCC 282, 48 h
Pseudomonas aeruginosa [4] = test: Antimicrobial activity against Pseudomonas aeruginosa MTCC 741 assessed as growth inhibition after 24 hr by agar streak dilution technique; settings: MTCC 741, 24 h
Escherichia coli [5] = test: Antimicrobial activity against Escherichia coli MTCC 739 assessed as growth inhibition after 24 hr by agar streak dilution technique; settings: MTCC 739, 24 h
Bacillus subtilis [6] = test: Antimicrobial activity against Bacillus subtilis MTCC 430 assessed as growth inhibition after 24 hr by agar streak dilution technique; settings: MTCC 430, 24 h
Staphylococcus aureus [7] = test: Antimicrobial activity against Staphylococcus aureus MTCC 96 assessed as growth inhibition after 24 hr by agar streak dilution technique; settings: MTCC 96, 24 h
Candida albicans [8] = test: Antimicrobial activity against Candida albicans MTCC 183 assessed as diameter of growth inhibition zone after 24 hr by paper disk diffusion technique
Aspergillus niger [9] = test: Antimicrobial activity against Aspergillus niger MTCC 282 assessed as diameter of growth inhibition zone after 24 hr by paper disk diffusion technique
Pseudomonas aeruginosa [10] = test: Antimicrobial activity against Pseudomonas aeruginosa MTCC 741 assessed as diameter of growth inhibition zone after 24 hr by paper disk diffusion technique
Escherichia coli [11] = test: Antimicrobial activity against Escherichia coli MTCC 739 assessed as diameter of growth inhibition zone after 24 hr by paper disk diffusion technique
Bacillus subtilis [12] = test: Antimicrobial activity against Bacillus subtilis MTCC 430 assessed as diameter of growth inhibition zone after 24 hr by paper disk diffusion technique
Staphylococcus aureus [13] = test: Antimicrobial activity against Staphylococcus aureus MTCC 96 assessed as diameter of growth inhibition zone after 24 hr by paper disk diffusion technique

| SMILES | growth inhibition (GI) [1] [%] | MIC [1] [µg/mL] | MIC (Candida albicans [2]) [µg/mL] | MIC (Aspergillus niger [3]) [µg/mL] | MIC (Pseudomonas aeruginosa [4]) [µg/mL] | MIC (Escherichia coli [5]) [µg/mL] | MIC (Bacillus subtilis [6]) [µg/mL] | MIC (Staphylococcus aureus [7]) [µg/mL] | diameter of the inhibition zone (DIZ) (Candida albicans [8]) [mm] | diameter of the inhibition zone (DIZ) (Aspergillus niger [9]) [mm] | diameter of the inhibition zone (DIZ) (Pseudomonas aeruginosa [10]) [mm] | diameter of the inhibition zone (DIZ) (Escherichia coli [11]) [mm] | diameter of the inhibition zone (DIZ) (Bacillus subtilis [12]) [mm] | diameter of the inhibition zone (DIZ) (Staphylococcus aureus [13]) [mm] |
| --- | --- | --- | --- | --- | --- | --- | --- | --- | --- | --- | --- | --- | --- | --- |
| O=C1CSC(c2cc3ccccc3nc2Cl)N1c1ccc([N+](=O)[O-])cc1 (stereo not given) | 97 | 50 (≈ 130 µM) | 25 (≈ 64.8 µM) | 12.5 (≈ 32.4 µM) | 12.5 (≈ 32.4 µM) | 62.5 (≈ 162 µM) | 50 (≈ 130 µM) | 12.5 (≈ 32.4 µM) | 24 | 24 | 25 | 21 | 23 | 26 |
| O=C1CSC(c2cc3ccccc3nc2Cl)N1c1ccccc1Cl (stereo not given) | 95 | 100 (≈ 266 µM) | 62.5 (≈ 167 µM) | 62.5 (≈ 167 µM) | 25 (≈ 66.6 µM) | 62.5 (≈ 167 µM) | 12.5 (≈ 33.3 µM) | 50 (≈ 133 µM) | 21 | 20 | 21 | 21 | 23 | 21 |
| O=C1CSC(c2cc3ccccc3nc2Cl)N1c1cccc(Cl)c1 (stereo not given) | 97 | 50 (≈ 133 µM) | 100 (≈ 266 µM) | 50 (≈ 133 µM) | 25 (≈ 66.6 µM) | 62.5 (≈ 167 µM) | 12.5 (≈ 33.3 µM) | 25 (≈ 66.6 µM) | 20 | 24 | 23 | 22 | 24 | 26 |
| O=C1CSC(c2cc3ccccc3nc2Cl)N1c1ccc(Cl)cc1 (stereo not given) | 96 | 62.5 (≈ 167 µM) | 50 (≈ 133 µM) | 12.5 (≈ 33.3 µM) | 25 (≈ 66.6 µM) | 50 (≈ 133 µM) | 12.5 (≈ 33.3 µM) | 50 (≈ 133 µM) | 22 | 25 | 24 | 23 | 24 | 23 |
| O=C1CSC(c2cc3ccccc3nc2Cl)N1c1ccc(F)cc1 (stereo not given) | 99 | 12.5 (≈ 34.8 µM) | 25 (≈ 69.7 µM) | 12.5 (≈ 34.8 µM) | 25 (≈ 69.7 µM) | 25 (≈ 69.7 µM) | 12.5 (≈ 34.8 µM) | 25 (≈ 69.7 µM) | 24 | 25 | 24 | 23 | 23 | 24 |
| Cc1cnc(N2C(=O)CSC2c2cc3ccccc3nc2Cl)s1 (stereo not given) | 98 | 25 (≈ 69.1 µM) | 100 (≈ 276 µM) | 62.5 (≈ 173 µM) | 50 (≈ 138 µM) | 25 (≈ 69.1 µM) | 50 (≈ 138 µM) | 50 (≈ 138 µM) | 23 | 24 | 22 | 24 | 23 | 24 |
| O=C(O)c1cn(C2CC2)c2cc(N3CCNCC3)c(F)cc2c1=O [CIPROFLOXACIN] |  |  |  |  | ≤ 1 | ≤ 1 | ≤ 1 | ≤ 1 |  |  | 33 | 32 | 31 | 30 |
| CC[C@@H](CO)NCCN[C@@H](CC)CO [ETHAMBUTOL] | 99 | 3.12 (≈ 15.3 µM) |  |  |  |  |  |  |  |  |  |  |  |  |
| CC(=O)N1CCN(c2ccc(OCC3COC(Cn4ccnc4)(c4ccc(Cl)cc4Cl)O3)cc2)CC1 (stereo not given) [KETOCONAZOLE] |  |  | ≤ 1 | ≤ 3 |  |  |  |  | 33 | 30 |  |  |  |  |
| NC(=O)c1cnccn1 [PYRAZINAMIDE] | 99 | 6.25 (≈ 50.8 µM) |  |  |  |  |  |  |  |  |  |  |  |  |
